Non-standard residues stand in square brackets, D forms with d. Residues, ends and D or L forms follow the SMILES beside them. *: point of attachment. Benzenesulfonyl(4-F) = O=S(=O)(c1ccc(F)cc1)*; X10 = O=C(c1ccccc1)[C@H]1CCCC[C@H]1C(=O)*; NH((S)CH(Me)CH2NMe2) = C[C@@H](CN(C)C)N*; Gly(octyl) = CCCCCCCC[C@H](N)C(=O)O; hCha = N[C@@H](CCC1CCCCC1)C(=O)O; X3 = O=C(c1coc(-c2ccccc2)n1)*; NH(CH2)3NMe2 = CN(C)CCCN*; X4 = O=C(C1CCc2ccccc2C1)*; Hexanoyl = CCCCCC(=O)*; Aib = CC(C)(N)C(=O)O; X7 = CN(C)CC(C)(C)N*; βAla = NCCC(=O)O
What was measured:
Plasmodium falciparum = experiment: 3H-hypoxanthine incorporation assay against Plasmodium falciparum; format: cell-based; conditions: In vitro inhibition, read-out: P.falc NF5
Method: (§1) Tests were done in triplicate.
IC50 values were calculated by linear interpolation.

[1] = test system: Trypanosoma cruzi trypomastigote forms (Tulahuen strain); experiment: Intracellular Trypanosoma cruzi assay in L6-cells, beta-galactosidase/CPRG readout; format: cell-based; conditions: In vitro inhibition, read-out: T.cruzi.
Procedure, shortened: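 L6 rat myoblasts infected with Tulahuen C2C4 LacZ T. cruzi; after incubation, CPRG/Nonidet substrate added and colour developed 2–6 h. Absorbance at 540 nm; IC50 calculated; triplicate tests.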

[2] = Cytotoxicity assay on L6-cells (Alamar Blue); conditions: rat, Cytotox L6, Cytotoxicity against rat myoblast cells (L6)
[3] = test system: Trypanosoma brucei rhodesiense (STIB 900 strain); experiment: Alamar Blue assay against Trypanosoma brucei rhodesiense grown in axenic medium; format: cell-based; conditions: In vitro inhibition, read-out: T.b.rhod.
Procedure, shortened: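 T. b. rhodesiense STIB 900 cultured in axenic medium and exposed to samples in an Alamar Blue viability assay, run in triplicate. IC50 calculated from the readout; melarsoprol served as reference drug.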

[4] = test system: intracellular Leishmania donovani (L.don. InMac); experiment: Intracellular Leishmania donovani assay (L.don. InMac); format: cell-based; conditions: In vitro inhibition
From the text: as §1

[5] = test system: Axenically grown Leishmania donovani amastigotes (strain MHOM/ET/67/L82); experiment: Axenic Leishmania donovani amastigote resazurin assay; format: cell-based; conditions: In vitro inhibition, read-out: L.don. ax
Procedure, shortened: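 Strain MHOM/ET/67/L82 amastigotes grown axenically and tested in triplicate by resazurin assay. Plates developed 2-4 hours, fluorescence read at 536 nm excitation/588 nm emission and expressed as percentage of negative control.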

SMILES | IC50 (Plasmodium falciparum) [nM] | IC50 [1] [nM] | IC50 at 70 h [2] [nM] | IC50 [3] [nM] | IC50 [4] [nM] | IC50 [5] [µM]
CCCCCCCC[C@H](NC(=O)[C@@H]1CCCN1C(=O)CCCCC)C(=O)N[C@@H](CC(C)C)C(=O)NC(C)(C)C(=O)N[C@@H](CC(C)C)C(=O)N[C@@H](CC(C)C)C(=O)NC(C)(C)C(=O)NC(C)(C)C(=O)NCCC(=O)NC(C)(C)CN(C)C [Compound 5889, (2S)-N-[(1S)-1-[(1-{[(1S)-1-{[(1S)-1-{[1-({1-[(2-{[1-(dimethylamino)-2-methylpropan-2-yl]carbamoyl}ethyl)carbamoyl]-1-methylethyl}carbamoyl)-1-methylethyl]carbamoyl}-3-methylbutyl]carbamoyl}-3-methylbutyl]carbamoyl}-1-methylethyl)carbamoyl]-3-methylbutyl]-2-{[(2S)-1-hexanoylpyrrolidin-2-yl]formamido}decanamide] (Hexanoyl-P[Gly(octyl)]L[Aib]LL[Aib][Aib][βAla]-X7) | 199 | 248 | 959 | 15.9 | 86.5 | 11.1
CCCCCCCC[C@H](NC(=O)[C@@H]1CCCN1C(=O)CCCCC)C(=O)N[C@@H](CC(C)C)C(=O)NC(C)(C)C(=O)N[C@@H](CC(C)C)C(=O)N[C@@H](CC(C)C)C(=O)NC(C)(C)C(=O)NC(C)(C)C(=O)NCCC(=O)NCCCN(C)C [Compound 5890, (2S)-N-[(1S)-1-[(1-{[(1S)-1-{[(1S)-1-{[1-({1-[(2-{[3-(dimethylamino)propyl]carbamoyl}ethyl)carbamoyl]-1-methylethyl}carbamoyl)-1-methylethyl]carbamoyl}-3-methylbutyl]carbamoyl}-3-methylbutyl]carbamoyl}-1-methylethyl)carbamoyl]-3-methylbutyl]-2-{[(2S)-1-hexanoylpyrrolidin-2-yl]formamido}decanamide] (Hexanoyl-P[Gly(octyl)]L[Aib]LL[Aib][Aib][βAla]-{NH(CH2)3NMe2}) | 0.2 | 44 | 592 | 44200 | 42500 | 0.0007
CCCCCCCC[C@H](NC(=O)[C@@H]1CCCN1S(=O)(=O)c1ccc(F)cc1)C(=O)N[C@@H](CC(C)C)C(=O)NC(C)(C)C(=O)N[C@@H](CC(C)C)C(=O)N[C@@H](CC(C)C)C(=O)NC(C)(C)C(=O)NC(C)(C)C(=O)NCCC(=O)N[C@@H](C)CN(C)C [Compound 5935, (2S)-N-[(1S)-1-[(1-{[(1S)-1-{[(1S)-1-{[1-({1-[(2-{[(2S)-1-(dimethylamino)propan-2-yl]carbamoyl}ethyl)carbamoyl]-1-methylethyl}carbamoyl)-1-methylethyl]carbamoyl}-3-methylbutyl]carbamoyl}-3-methylbutyl]carbamoyl}-1-methylethyl)carbamoyl]-3-methylbutyl]-2-{[(2S)-1-(4-fluorobenzenesulfonyl)pyrrolidin-2-yl]formamido}decanamide] ({Benzenesulfonyl(4-F)}-P[Gly(octyl)]L[Aib]LL[Aib][Aib][βAla]-{NH((S)CH(Me)CH2NMe2)}) | 47300 | 33.5 | 384 | 42400 | < 33.5 | 14.5
CCCCCC(=O)N1CCC[C@H]1C(=O)N[C@@H](CCC1CCCCC1)C(=O)N[C@@H](CC(C)C)C(=O)NC(C)(C)C(=O)N[C@@H](CC(C)C)C(=O)N[C@@H](CC(C)C)C(=O)NC(C)(C)C(=O)NC(C)(C)C(=O)NCCC(=O)N[C@@H](C)CN(C)C [Compound 5942, (2S)-2-[(2S)-4-cyclohexyl-2-{[(2S)-1-hexanoylpyrrolidin-2-yl]formamido}butanamido]-N-(1-{[(1S)-1-{[(1S)-1-{[1-({1-[(2-{[(2S)-1-(dimethylamino)propan-2-yl]carbamoyl}ethyl)carbamoyl]-1-methylethyl}carbamoyl)-1-methylethyl]carbamoyl}-3-methylbutyl]carbamoyl}-3-methylbutyl]carbamoyl}-1-methylethyl)-4-methylpentanamide] (Hexanoyl-P[hCha]L[Aib]LL[Aib][Aib][βAla]-{NH((S)CH(Me)CH2NMe2)}) | 0.9 | 4 | 148 | 0.3 | < 35.4 | 42.6
CCCCCCCC[C@H](NC(=O)c1coc(-c2ccccc2)n1)C(=O)N[C@@H](CC(C)C)C(=O)NC(C)(C)C(=O)N[C@@H](CC(C)C)C(=O)N[C@@H](CC(C)C)C(=O)NC(C)(C)C(=O)NC(C)(C)C(=O)NCCC(=O)N[C@@H](C)CN(C)C [Compound 5943, (2S)-N-[(1S)-1-[(1-{[(1S)-1-{[(1S)-1-{[1-({1-[(2-{[(2S)-1-(dimethylamino)propan-2-yl]carbamoyl}ethyl)carbamoyl]-1-methylethyl}carbamoyl)-1-methylethyl]carbamoyl}-3-methylbutyl]carbamoyl}-3-methylbutyl]carbamoyl}-1-methylethyl)carbamoyl]-3-methylbutyl]-2-[(2-phenyl-1,3-oxazol-4-yl)formamido]decanamide] (X3-[Gly(octyl)]L[Aib]LL[Aib][Aib][βAla]-{NH((S)CH(Me)CH2NMe2)}) | 15.3 | 156 | 552 | 0.5 | < 36.1 | 18.7
CCCCCCCC[C@H](NC(=O)C1CCc2ccccc2C1)C(=O)N[C@@H](CC(C)C)C(=O)NC(C)(C)C(=O)N[C@@H](CC(C)C)C(=O)N[C@@H](CC(C)C)C(=O)NC(C)(C)C(=O)NC(C)(C)C(=O)NCCC(=O)N[C@@H](C)CN(C)C (stereo partly drawn) [Compound 5944, (2S)-N-[(1S)-1-[(1-{[(1S)-1-{[(1S)-1-{[1-({1-[(2-{[(2S)-1-(dimethylamino)propan-2-yl]carbamoyl}ethyl)carbamoyl]-1-methylethyl}carbamoyl)-1-methylethyl]carbamoyl}-3-methylbutyl]carbamoyl}-3-methylbutyl]carbamoyl}-1-methylethyl)carbamoyl]-3-methylbutyl]-2-[(1,2,3,4-tetrahydronaphthalen-2-yl)formamido]decanamide] (X4-[Gly(octyl)]L[Aib]LL[Aib][Aib][βAla]-{NH((S)CH(Me)CH2NMe2)}) | 42500 | 5 | 137 | 0.1 | < 36.5 | 0.0006
CCCCCCCC[C@H](NC(=O)[C@@H]1CCCC[C@@H]1C(=O)c1ccccc1)C(=O)N[C@@H](CC(C)C)C(=O)NC(C)(C)C(=O)N[C@@H](CC(C)C)C(=O)N[C@@H](CC(C)C)C(=O)NC(C)(C)C(=O)NC(C)(C)C(=O)NCCC(=O)N[C@@H](C)CN(C)C [Compound 5945, (2S)-2-{[(1R,2S)-2-benzoylcyclohexyl]formamido}-N-[(1S)-1-[(1-{[(1S)-1-{[(1S)-1-{[1-({1-[(2-{[(2S)-1-(dimethylamino)propan-2-yl]carbamoyl}ethyl)carbamoyl]-1-methylethyl}carbamoyl)-1-methylethyl]carbamoyl}-3-methylbutyl]carbamoyl}-3-methylbutyl]carbamoyl}-1-methylethyl)carbamoyl]-3-methylbutyl]decanamide] (X10-[Gly(octyl)]L[Aib]LL[Aib][Aib][βAla]-{NH((S)CH(Me)CH2NMe2)}) | 42600 | 34.3 | 144 | 0.4 | < 34.7 | 42.7
